{
  "source": "patent US20040167028A1",
  "about": "“Method of introducing a substance into plant tissue” (HAMAMATSU PHOTONICS K.K., priority 2002, published 2004)",
  "test_system": "tomato plant",
  "from_the_text": "According to the method of the invention, information relating to the amount, speed and site of introduction of the substance introduced into the plant tissue can be obtained, for example, using a positron imaging apparatus. With a positron imaging apparatus, information on the measuring target is obtained by introducing a substance labeled with positron-emitting RI as a tracer into a living body, and measuring the pair of gamma-rays produced as the positrons emitted from the RI-labeled substance are annihilated against electrons in the substance (see, for example, Japanese Patent Application Laid-Open No. 9-33658).\nFIG. 5 is a view showing the basic construction of a positron imaging apparatus. The apparatus shown in this drawing comprises a pair of two-dimensional radiation detectors 60 and 70. The two-dimensional radiation detectors 60 and 70 in turn comprise scintillator arrays 61,71 each composed of a plurality of scintillators, and photodetectors 62,72 for detection of scintillation light generated by incidence of the gamma-rays on the scintillator arrays 61,71. The radiation detectors 60,70 are housed in separate detector cases 65,75 with the radiation incidence planes of the scintillator arrays 61,71 facing each other.\nIn this construction, a pair of gamma-rays emitted from a measuring target B (a plant, according to the invention) placed on a prescribed measuring surface S between the radiation detectors 60,70 are each detected by the radiation detectors 60,70. The detection signals are outputted through connected circuit systems 63,73 having amplifier circuits, etc. for amplification of the detection signals. The outputted amplification signals are inputted into a signal processing circuit 80, and the signal processing circuit 80 identifies coincident electron/positron annihilation events and calculates the position of the annihilation, based on the detection signals from the two radiation detectors 60,70.\nTomato (Merryroad variety) approximately 4 weeks after sprouting was used as the test plant. After removing a leaf at the end of the 6th side branch from the bottom of the main stem, the end was cut in the water for use as the absorption site (conductive tissue-exposed side branch) FIG. 6 is a schematic view showing the arrangement of the main stem 3 and side branches 2 of the tomato plant used in this experiment. The absorption site was located at the end of the side branch 2 extending toward the left in FIG. 6.\nFIG. 7 is an integrated image obtained from the positron imaging apparatus, with the integrated image positioned to correspond to the positions of the main stem and side branch in FIG. 6.\nNext, all of the leaves on the substance-absorbed side branch 2 of the tomato plant used in Comparative Example 1 were removed. […] FIG. 8 is the integrated image obtained from the positron imaging apparatus, with the integrated image positioned to correspond to the positions of the, main stem and side branch in FIG. 6.\nUsing a different tomato plant from that used in Example 1 (the same variety but a different plant), a leaf at the end of the 6th side branch from the bottom of the main stem was removed in the same manner as Example 1, and the end was cut in the water for use as the absorption site in the same manner as Comparative Example 1. The other leaves on that side branch were shaded by covering them with aluminum foil to inhibit transpiration. FIG. 10 is a schematic view showing the arrangement of the main stem 3 and side branches 2 of the tomato plant used in this experiment. The absorption site was located at the end of the upper side branch 2 of the side branches 2 extending toward the left in FIG. 10.",
  "note": "Like-named read-outs stand apart in the source and are kept apart here.",
  "data": [
    {"smiles": "O=[N+]([O-])O", "note": "[^13N-labeled nitric acid]", "values": [
      {"measurement": "migration of the substance in the main stem (integrated image)", "setting": "Comparative Example 1, side branch with leaves, no inhibition of transpiration, FIG. 7", "result": "almost all of the substance migrated downward in the main stem"},
      {"measurement": "introduction of the substance into the side branch (integrated image)", "setting": "Comparative Example 2, leaves unshaded, no inhibition of transpiration, FIG. 12", "result": "very little of the substance had been introduced"},
      {"measurement": "amount of substance introduction (RI accumulation / nitric acid absorption at the node)", "setting": "Example 1, all leaves of the absorbing side branch removed, versus Comparative Example 1 with leaves, observed for 1 hour, FIG. 9", "result": "over twice"},
      {"measurement": "migration of the substance in the main stem (integrated image)", "setting": "Example 1, leaves of the side branch removed, FIG. 8", "result": "Upward migration was also confirmed in the main stem"},
      {"measurement": "amount of substance introduction (RI accumulation at the node)", "setting": "Example 2, leaves of the absorbing side branch shaded with aluminum foil, versus Comparative Example 2 unshaded, FIG. 13", "result": "over twice"},
      {"measurement": "migration of the substance in the main stem (integrated image)", "setting": "Example 2, leaves shaded to inhibit transpiration, FIG. 11", "result": "upward migration occurred in the main stem"},
      {"measurement": "introduction of the substance into the plant (integrated image)", "setting": "Example 4, sieve tubes of the side branch eliminated by heating at about 100° C., vessels alone, FIG. 16", "result": "the substance had been introduced into the plant"}
    ]}
  ]
}
